Earlier results on two molecules are cited in US20170119788A1, “METHODS AND COMPOSITIONS FOR DERMATOLOGICAL USE COMPRISING FLUTICASONE AND MOMETASONE AND BIOPOLYMERS” (APEX LABORATORIES PRIVATE LIMITED, priority 2015, published 2017).

Read-outs that look alike come from different tables or passages of the source.

Series [1] addresses T1, human glucocorticoid receptors (Homo sapiens, UniProt P04150).
T1 sequence (P04150 1-777): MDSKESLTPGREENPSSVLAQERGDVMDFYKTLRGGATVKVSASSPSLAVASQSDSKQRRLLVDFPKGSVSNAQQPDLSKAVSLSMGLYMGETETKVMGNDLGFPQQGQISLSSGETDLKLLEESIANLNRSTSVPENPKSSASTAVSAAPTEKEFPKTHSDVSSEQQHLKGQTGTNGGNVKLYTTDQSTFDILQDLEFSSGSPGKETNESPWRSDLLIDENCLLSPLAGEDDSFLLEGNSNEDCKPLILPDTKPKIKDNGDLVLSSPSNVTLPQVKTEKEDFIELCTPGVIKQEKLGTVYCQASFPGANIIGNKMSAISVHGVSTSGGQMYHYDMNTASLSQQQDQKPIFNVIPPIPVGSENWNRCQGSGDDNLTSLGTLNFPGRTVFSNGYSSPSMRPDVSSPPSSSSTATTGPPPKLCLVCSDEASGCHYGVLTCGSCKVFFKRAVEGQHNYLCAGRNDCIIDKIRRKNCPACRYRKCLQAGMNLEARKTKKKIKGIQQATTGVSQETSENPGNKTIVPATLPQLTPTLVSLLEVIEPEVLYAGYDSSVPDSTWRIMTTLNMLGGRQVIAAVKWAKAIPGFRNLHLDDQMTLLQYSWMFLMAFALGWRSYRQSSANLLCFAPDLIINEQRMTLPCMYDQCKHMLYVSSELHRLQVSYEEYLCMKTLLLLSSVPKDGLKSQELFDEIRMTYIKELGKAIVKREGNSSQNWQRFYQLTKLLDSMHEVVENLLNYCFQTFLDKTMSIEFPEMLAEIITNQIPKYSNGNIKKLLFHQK
The following applies: in vitro, result in words.

Test in series [2]: not given
The source holds these as a separate data set.

The subject of another series is human plasma proteins. The settings on record: average.
A further series relates to erythrocytes. The settings on record: result in words.
In a further series the target is T2, human transcortin (Homo sapiens, UniProt P08185).
T2 sequence (P08185 23-405): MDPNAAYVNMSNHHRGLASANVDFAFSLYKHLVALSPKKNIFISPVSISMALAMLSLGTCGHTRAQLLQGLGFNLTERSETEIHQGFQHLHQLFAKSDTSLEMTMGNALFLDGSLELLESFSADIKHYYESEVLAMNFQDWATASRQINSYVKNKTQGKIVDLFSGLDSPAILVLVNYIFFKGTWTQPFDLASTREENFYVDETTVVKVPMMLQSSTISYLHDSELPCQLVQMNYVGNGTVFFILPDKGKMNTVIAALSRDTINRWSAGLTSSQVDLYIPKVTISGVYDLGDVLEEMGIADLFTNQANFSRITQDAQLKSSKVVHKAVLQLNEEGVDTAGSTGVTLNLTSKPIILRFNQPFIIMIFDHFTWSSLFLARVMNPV
The settings on record: result in words.

Test in series [3]: not given
This is another data set of the same source.

Test in series [4]: not given
This is another data set of the same source.

Turning to `CCC(=O)O[C@]1(C(=O)SCF)[C@H](C)C[C@H]2[C@@H]3C[C@H](F)C4=CC(=O)C=C[C@]4(C)[C@@]3(F)[C@@H](O)C[C@@]21C` [Fluticasone propionate, S-(fluoromethyl)6α,9-difluoro-11β-17-dihydroxy-16α-methyl-3-oxoandrosta-1,4-diene-17β-carbothioate, 17-propionate], the “solubility in dimethyl sulfoxide and dimethylformamide” value (dimethyl sulfoxide and dimethylformamide) is “freely soluble”. Where the note is “methanol and 95% ethanol”, the “solubility in methanol and 95% ethanol” value is recorded as “slightly soluble”. Also, the solubility in water entry (water) was “practically insoluble”. Also, the “affinity and agonist activity at human glucocorticoid receptors” value in series [1] is “strong affinity and agonist activity”. Moreover, in series [2], the “apparent volume of distribution, average” value is listed as 4.2 L/kg and the “terminal half-life, average” value is 7.2 h. Moreover, in the series on human plasma proteins, the “percentage bound to human plasma proteins” value is reported as 91%. Besides, the binding to erythrocytes entry in the series on erythrocytes was “weakly and reversibly bound”. Besides, the “binding to human transcortin” value on human transcortin was “not significantly bound”.
Take `C[C@@H]1C[C@H]2[C@@H]3CCC4=CC(=O)C=C[C@]4(C)[C@@]3(Cl)[C@@H](O)C[C@]2(C)[C@@]1(OC(=O)c1ccco1)C(=O)CCl` [Mometasone Furoate, 9α, 21-dichloro-11β, 17-dihydroxy-16α-methylpregna-1,4-diene-3, 20-dione 17-(2-Furoate)]: the “solubility in ethyl alcohol” value in series [3] (ethyl alcohol) is recorded as “moderately soluble”. Moreover, the solubility in octanol entry in series [3] (octanol) is on record as “slightly soluble”. The solubility in water entry in series [3] (water) is recorded as “practically insoluble”. Further, in series [4] (compared with IV administration), the “bioavailability of an inhaled dose” value is listed as “less than 1%”. For the same molecule, in series [4] (up to 7 days), the “excretion in the feces” value is on record as 74% and the “excretion in the urine” value is on record as 8%.
